Like-named read-outs stand apart in the source and are kept apart here. Blank lines part the entries; values can stand above or below the compound they belong to.
How the values were obtained:
U937 cells = test: U937 cell inhibition assay (WST-1 proliferation); format: cell-based; conditions: for Ratio cell IC50s to enzyme IC50: U937 proliferation IC50 to HDAC enzyme IC50
Protocol: (§1) U937 and HUT Cell Inhibition Assay
(§2) Cancer cell lines (U937 and HUT) growing in log phase were harvested and seeded at 1000-2000 cells/well (100 μl final volume) into 96-well tissue culture plates. Following 24 hours of growth cells were treated with compound. Plates were then re-Incubated for a further 72-96 hours before a WST-1 cell viability assay was conducted according to the suppliers (Roche Applied Science) instructions.
(§3) Data were expressed as a percentage inhibition of the control, measured in the absence of Inhibitor, as follows: % inhibition=100−[(S^i/S^o)×100] where S^i is the signal in the presence of Inhibitor and S^o s the signal in the presence of DMSO.
(§4) Dose response curves were generated from 8 concentrations (top final concentration 10 μM, with 3-fold dilutions), using 6 replicates.
(§5) IC50 values were determined by non-linear regression analysis, after fitting the results to the equation for sigmoidal dose response with variable slope (% activity against log concentration of compound), using Graphpad Prism software.

HUT 78 cells = test: HUT cell inhibition assay (WST-1 proliferation); format: cell-based; conditions: Table 5; for Ratio IC50s in HUT 78 to U937 cells: proliferation IC50s
Protocol: as §1, §2, §3, §4, §5

[1] = target: histone deacetylase activity (HeLa nuclear extract); test: Histone deacetylase activity (Fluor de Lys, HeLa nuclear extract); format: biochemical; conditions: read-out: Inhibition of HDAC (IC50 nM)
Protocol: Histone Deacetylase Activity
The ability of compounds to inhibit histone deacetylase activities was measured using the commercially available HDAC fluorescent activity assay from Biomol. In brief, the Fluor de Lys™ substrate, a lysine with an epsilon-amino acetylation, is incubated with the source of histone deacetylase activity (HeLa nuclear extract) in the presence or absence of inhibitor. Deacetylation of the substrate sensitises the substrate to Fluor de Lys™ developer, which generates a fluorophore. Thus, incubation of the substrate with a source of HDAC activity results in an increase in signal that is diminished in the presence of an HDAC inhibitor.
Data are expressed as a percentage of the control, measured in the absence of inhibitor, with background signal being subtracted from all samples, as follows: % activity=[(S^i−B)/(S^o−B)]×100 where S^i is the signal in the presence of substrate, enzyme and Inhibitor, S^o is the signal in the presence of substrate, enzyme and the vehicle in which the inhibitor is dissolved, and B is the background signal measured in the absence of enzyme.
IC50 values were determined by non-linear regression analysis, after fitting the results of eight data points to the equation for sigmoidal dose response with variable slope (% activity against log concentration of Compound), using Graphpad Prism software.
Histone deacetylase activity from crude nuclear extract derived from HeLa cells was used for screening. The preparation, purchased from 4C (Seneffe, Belgium), was prepared from HeLa cells harvested whilst in exponential growth phase. The nuclear extract was prepared according to the methodology described by J. D. Dignam, Nucl. Acid. Res., 1983, 11, 1475-1489, snap frozen in liquid nitrogen and stored at −80° C. The final buffer composition was 20 mM Hepes, 100 mM KCl, 0.2 mM EDTA, 0.5 mM DTT, 0.2 mM PMSF and 20% (v/v) glycerol.

[2] = test system: phosphorylation of MAPKAP-2 in HUT 78 cells; test: p38 MAP Kinase cellular assay: inhibition of phosphorylation of MAPKAP2 in HUT 78 cells; format: cell-based; conditions: for IC50: Homo sapiens, HuT78, HUT 78 non-monocyte cell line; for Ratio IC50s in HUT 78 to U937 cells: MAPKAP-2 phosphorylation IC50s
Protocol: (§6) p38 MAP Kinase Cellular Assay: Inhibition of Phosphorylation of MAPKAP2
(§7) U937 or HUT78 cells were plated in RPMI 1640, and were incubated at 37° C., 5% CO2 for 18 hours. 10 mM stocks of compounds were diluted media/0.1% DMSO to give a log or semi-log dilution series. The wells for ‘no treatment’ and ‘anisomycin’ were treated with 0.1% DMSO only. The cells were incubated at 37° C., 5% CO2 for a further 4 hours. Anisomycin was added to all wells except ‘no treatment’ at a final concentration of 10 μM. The cells were incubated at 37° C., 5% CO2 for 30 minutes before harvest. Plates were stood on ice whilst harvesting, and all following steps were carried out at 4° C. The cells were pelleted at 1000 rpm for 10 minutes at 4° C., the media aspirated, and the pellet washed with cold PBS. The pellets were lysed in 120 μl of SDS lysis buffer (62.5 mM Tris, pH 6.8, 2% SDS, 10% glycerol, 50 mM DTT, with protease inhibitors and phosphatase inhibitors added according to the manufacturers' recommendations). After 30 minutes on ice, the samples were sonicated for 5 seconds before centrifugation at 13,000 rpm 4° C. for 10 minutes to remove cell debris. 10 μl of the resulting gel samples were loaded per lane on NOVEX 4-12% Bis-Tris MOPS gels. Membranes from western transfer of gels were blotted with anti-phospho MAPKAP2, anti-phospho HSP27 and anti GAPDH according to the manufacturers' Instructions. Signal was visualised using HRP-Hnked anti-rabbit or anti-mouse antibodies, ECL reagent and ECL film. IC50 values for the various compounds were visualised from the resulting photographic images, using both band-shift and signal intensity.

[3] = test system: phosphorylation of MAPKAP-2 in U937 cells; test: p38 MAP Kinase cellular assay: inhibition of phosphorylation of MAPKAP2 in U937 cells; format: cell-based; conditions: for IC50: Homo sapiens, U-937
Protocol: as §6, §7

p38 MAP Kinase α = target: T1, p38 MAP Kinase α (Homo sapiens, UniProt Q16539); test: p38 MAP Kinase enzyme assay; format: biochemical; conditions: Table 1 (biology); compound as such, Ester for Example 1; read-out: Inhibition of P38 (IC50 nM)
T1 construct: purchased Upstate (Dundee UK)
T1 sequence (Q16539 whole entry): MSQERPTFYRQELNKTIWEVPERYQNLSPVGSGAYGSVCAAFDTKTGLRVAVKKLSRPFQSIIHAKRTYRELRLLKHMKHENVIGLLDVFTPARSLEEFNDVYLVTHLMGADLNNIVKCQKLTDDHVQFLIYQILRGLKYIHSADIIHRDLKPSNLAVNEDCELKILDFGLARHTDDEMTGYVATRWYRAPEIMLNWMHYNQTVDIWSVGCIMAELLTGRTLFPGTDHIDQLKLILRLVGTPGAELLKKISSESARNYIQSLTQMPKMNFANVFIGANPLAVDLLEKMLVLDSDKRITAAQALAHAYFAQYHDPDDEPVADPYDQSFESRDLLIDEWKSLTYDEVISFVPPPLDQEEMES
Protocol: p38 MAP Kinase Enzyme Assay
The ability of compounds to inhibit p38 MAPα Kinase activity was measured in an assay performed by Upstate (Dundee UK). In a final reaction volume of 25 μL, p38 MAP Kinase α (5-10 mU) is incubated with 25 mM Tris pH 7.5, 0.02 mM EGTA, 0.33 mg/mL myelin basic protein, 10 mM MgAcetate and [γ-^33P-ATP](specific activity approx. 500 cpm/pmol, concentration as required). The reaction is initiated by the addition of the MgATP mix. After incubation for 40 minutes at room temperature, the reaction is stopped by the addition of 5 μL of a 3% phosphoric acid solution. 10 μL of the reaction is then spotted onto a P30 filtermat and washed three times for 5 minutes in 75 mM phosphoric acid and once in methanol prior to drying and scintillation counting.
Duplicate data points are generated from a 1/3 log dilution series of a stock solution in DMSO. Nine dilutions steps are made from a top concentration of […], and a ‘no compound’ blank is included. The standard radiometric filter-binding assay is performed at an ATP concentration at, or close to, the Km. Data from scintillation counts are collected and subjected to free-fit analysis by Prism software. From the curve generated, the concentration giving 50% inhibition is determined and reported.

[4] = Table 4, compound as such, Ester for Examples 7 and 9
[5] = Table 5, compound as such, Ester for Examples 7 and 9

IC50 (U937 cells; Homo sapiens, U-937, Table 4, head prints no unit, same values in Table 5 as IC50 nM, read-out: Inhibition of proliferation in U937 cells): 190 nM | IC50 (U937 cells; Homo sapiens, U-937, Table 5, U937 cells, read-out: Inhibition of proliferation in U937 cells (IC50 nM)): 190 nM | Ratio cell IC50s to enzyme IC50 (U937 cells; Table 4): 0.04 | IC50 ([1]; Table 4, Acid = carboxylic acid hydrolysis product of the ester): 6240 nM | IC50 [1, 4]: 4900 nM | IC50 ([1]; Table 5, Acid = carboxylic acid hydrolysis product of the ester): 6240 nM | IC50 [1, 5]: 4900 nM
SMILES: CC(C)CC(C)(NCc1ccc(CCC(=O)NO)cc1)C(=O)OC1CCCC1 (racemic) [Example 9, Cyclopentyl N-{4-[3-(hydroxyamino)-3-oxopropyl]benzyl}-2-methyl-D,L-leucinate]
potency in monocytic (U937) versus non monocytic (Hut78) cell lines (proliferation) (U937 cells; U937 versus Hut78): 30 times | potency in the cellular (U937 proliferation) assay compared with the parent compound (U937 cells; versus Compound IV): significantly more potent than the parent compound | IC50 (HUT 78 cells; Homo sapiens, HuT78, HUT 78 cells): 5500 nM | Ratio IC50s in HUT 78 to U937 cells (HUT 78 cells): 30

IC50 ([2]; Table 2): 450 nM | IC50 ([3]; Table 1 (biology), U937 cells, read-out: Inhibition of phosphorylation of MAPKAP-2 in U937 cells (IC50)): 300 nM | IC50 ([3]; Table 2, U937 monocyte cell line, read-out: Inhibition of phosphorylation of MAPKAP-2 in U937 cells (IC50, nM) (monocyte cell line)): 300 nM | Ratio cell IC50s to enzyme IC50 ([3]; U937 MAPKAP-2 IC50 to P38 enzyme IC50): 6 | IC50 (p38 MAP Kinase α): 50 nM
SMILES: Nc1c(C(=O)c2ccc(F)cc2F)ccc(=O)n1-c1ccccc1 [Compound I, reference compound]
Ratio IC50s in HUT 78 to U937 cells ([2]; Table 2): 1.5 | potency in monocytic versus non monocytic cell lines (MAPKAP-2 phosphorylation) ([3]; U937 versus HUT 78): equipotent

IC50 ([2]; Table 3): 10 nM | IC50 ([3]; Table 3, U937 monocyte cell line, read-out: Inhibition of phosphorylation of MAPKAP-2 in U937 cells (IC50, nM) (monocyte cell line)): 10 nM
SMILES: Nc1c(C(=O)c2ccc(F)cc2F)ccc(=O)n1-c1c(F)cccc1F [Compound II, reference compound]
Ratio IC50s in HUT 78 to U937 cells ([2]; Table 3): 1

Ratio cell IC50s to enzyme IC50 (U937 cells; Table 4): >3.85 | IC50 [1, 4]: 2600 nM | IC50 [1, 5]: 2600 nM
SMILES: O=C(CCc1ccccc1)NO [Compound IV, N-Hydroxy-3-phenyl-propionamide, reference compound]
inhibition at 10 µM (U937 cells; Homo sapiens, U-937, Table 4, @ 10 μM): 13% | Inhibition of proliferation in U937 cells (U937 cells; Table 5, @ 10 μM): 13% @ 10 μM | inhibition at 10 µM (HUT 78 cells; Homo sapiens, HuT78, @ 10 μM): 10% | Ratio IC50s in HUT 78 to U937 cells (HUT 78 cells): ~1

Source: US9636409B2, “Enzyme and receptor modulation using covalent conjugates of alpha,alpha-disubstituted glycine esters” (GlaxoSmithKline Intellectual Property Development Limited, priority 2008, dated 2017)
